Reference: publication PMC9368227, “Investigation of Radiotracer Metabolic Stability In Vitro with CYP-Overexpressing Hepatoma Cell Lines” (Cells, 2022)

How the values were obtained:
[1] = Radiotracer incubation in buffer only (control, without any cell line), radio-TLC; assay type: in vitro ADME; settings: reference incubation without any cell lines
Procedure: HepG2 cells were cultured in DMEM GlutaMax (Gibco, Paisley, UK) with 10% fetal calf serum (FCS) and with selective antibiotics (penicillin/streptomycin for wildtype, Zeocin (InvivoGen, San Diego, CA, USA) for CYP1A2, and Blasticidin (Gibco, Carlsbad, CA, USA) for CYP2C19 and CYP3A4 cultures). As a negative control, cultures of CHO cultivated in Ham’s F-12 medium (Gibco) with 10% FCS and 2 mM glutamine were added for the radiotracer experiments. Cells were handled under a laminar flow hood (Thermo Scientific^TM Safe 2020, Langenselbold, Germany) and were split once or twice a week by trypsinization. Cell cultures were stored horizontally in a humidified incubator (Heracell240i) at 37 °C and 5% CO2. During the time of experimental work, the utilized cell lines were regularly checked for mycoplasma. Cells were seeded in duplicates into a 96-well plate (CellStar®) with a density of 3 × 10^5 cells/well and cultured until the next day at 37 °C and 5% CO2. Cell density was determined with a cell counter (CASY® Model TT from Schärfe System, Reutlingen, Germany). Before the addition of substrates, cells were washed twice with Krebs–Henseleit buffer (KHB). The HEPES-supplemented Krebs–Henseleit buffer (pH 7.4, KHB) was freshly prepared using HEPES (5.95 g/L), D-glucose (2.0 g/L), magnesium sulfate (0.141 g/L), potassium dihydrogenphosphate (0.16 g/L), potassium chloride (0.35 g/L), sodium chloride (6.9 g/L), calcium chloride dihydrate (0.373 g/L), and sodium bicarbonate (2.1 g/L), followed by adjustment to pH 7.4 with NaOH. […]
(§1) Incubations with radiotracer compounds were conducted, on the one hand, with radioactive ^18F-labeled compounds alone (time dependency) and, on the other hand, in the presence of 50 µM nonradioactive reference (carrier addition). For the investigation of a time-dependent metabolite formation, 2 µL aliquots were withdrawn from the supernatant, directly spotted onto the TLC plate, and analyzed as described above. […]

HepG2 CYP1A2 = test: Radiotracer metabolic stability, CYP1A2-overexpressing HepG2 cells; assay type: in vitro ADME, human; settings: HepG2 CYP1A2, up to 2 h; radio-TLC
Procedure: (§2) CYP-overexpressing human hepatocellular carcinoma cells (HepG2) were previously generated on the basis of subcloning human CYP1A2 [18], CYP2C19 [20], and CYP3A4 [21] cDNA into a lentiviral expression vector. The cDNA expression in the resulting vector was controlled by the human cytomegalovirus (CMV) promoter. The lentivirus expression vectors were used to produce recombinant lentivirus particles according to standard methods to infect HepG2 cells. Infected cells were selected with 3 µg/mL blasticidin for CYP2C19 and CYP3A4 and 500 µg/mL zeocin for CYP1A2 overexpression 48 h after infection. Within 3–4 weeks, antibiotic-resistant cell colonies were picked to obtain single cell-derived HepG2 clones. For more detailed information on the generation procedure of CYP-overexpressing HepG2 cells, see Steinbrecht et al..
(§3) HepG2 cells were cultured in DMEM GlutaMax (Gibco, Paisley, UK) with 10% fetal calf serum (FCS) and with selective antibiotics (penicillin/streptomycin for wildtype, Zeocin (InvivoGen, San Diego, CA, USA) for CYP1A2, and Blasticidin (Gibco, Carlsbad, CA, USA) for CYP2C19 and CYP3A4 cultures). […] Cell density was determined with a cell counter (CASY® Model TT from Schärfe System, Reutlingen, Germany). […]
as §1
UPLC–MS analyses were performed to verify the degradation behavior of the test compounds and to gain insights into the identity of the formed metabolites. […] Additionally, incubations with the nonradioactive references were carried out with 100 nM or 50 µM (according to the carrier-added samples) and analyzed. UPLC–MS/MS was performed using System 2 (55% isocratic elution for quantification of intact compound, or 25–75% gradient for nonradioactive metabolite analysis). […]

HepG2 CYP3A4 = test: Radiotracer metabolic stability, CYP3A4-overexpressing HepG2 cells; assay type: in vitro ADME, human; settings: HepG2 CYP3A4; radio-TLC
Procedure: as §2
as §3, with “cultures). As a negative control, cultures of CHO cultivated in Ham’s F-12 medium (Gibco) with 10% FCS and 2 mM glutamine were added for the radiotracer experiments.” for “cultures).”

HepG2 CYP2C19 = test: Radiotracer metabolic stability, CYP2C19-overexpressing HepG2 cells; assay type: in vitro ADME, human; settings: radio-TLC
Procedure: as §2
HepG2 cells were cultured in DMEM GlutaMax (Gibco, Paisley, UK) with 10% fetal calf serum (FCS) and with selective antibiotics (penicillin/streptomycin for wildtype, Zeocin (InvivoGen, San Diego, CA, USA) for CYP1A2, and Blasticidin (Gibco, Carlsbad, CA, USA) for CYP2C19 and CYP3A4 cultures). As a negative control, cultures of CHO cultivated in Ham’s F-12 medium (Gibco) with 10% FCS and 2 mM glutamine were added for the radiotracer experiments. Cells were handled under a laminar flow hood (Thermo Scientific^TM Safe 2020, Langenselbold, Germany) and were split once or twice a week by trypsinization. Cell cultures were stored horizontally in a humidified incubator (Heracell240i) at 37 °C and 5% CO2. During the time of experimental work, the utilized cell lines were regularly checked for mycoplasma. Cells were seeded in duplicates into a 96-well plate (CellStar®) with a density of 3 × 10^5 cells/well and cultured until the next day at 37 °C and 5% CO2. Cell density was determined with a cell counter (CASY® Model TT from Schärfe System, Reutlingen, Germany). Before the addition of substrates, cells were washed twice with Krebs–Henseleit buffer (KHB). The HEPES-supplemented Krebs–Henseleit buffer (pH 7.4, KHB) was freshly prepared using HEPES (5.95 g/L), D-glucose (2.0 g/L), magnesium sulfate (0.141 g/L), potassium dihydrogenphosphate (0.16 g/L), potassium chloride (0.35 g/L), sodium chloride (6.9 g/L), calcium chloride dihydrate (0.373 g/L), and sodium bicarbonate (2.1 g/L), followed by adjustment to pH 7.4 with NaOH. The utilized substances within this study were neither found (see Supplementary Materials, Figure S14) nor reported to be cytotoxic within the utilized concentration range and incubation duration.
Incubations with radiotracer compounds were conducted, on the one hand, with radioactive ^18F-labeled compounds alone (time dependency) and, on the other hand, in the presence of 50 µM nonradioactive reference (carrier addition). For the investigation of a time-dependent metabolite formation, 2 µL aliquots were withdrawn from the supernatant, directly spotted onto the TLC plate, and analyzed as described above. The same procedure was performed for carrier-added samples.
UPLC–MS analyses were performed to verify the degradation behavior of the test compounds and to gain insights into the identity of the formed metabolites. Using radiotracer incubation samples, 40 µL aliquots of the carrier-added incubations were withdrawn followed by addition of 160 µL of ACN and centrifugation (14,000 rpm (18,800–20,800× g), 4 °C, 5 min). Samples were frozen at −20 °C, and activity was allowed to decay before further mass-spectrometric analyses. Additionally, incubations with the nonradioactive references were carried out with 100 nM or 50 µM (according to the carrier-added samples) and analyzed. UPLC–MS/MS was performed using System 2 (55% isocratic elution for quantification of intact compound, or 25–75% gradient for nonradioactive metabolite analysis). The MRM mode was optimized with a solution of respective reference compounds diluted in eluent. […]

Compound	Defluorination without additional enzymes in the incubation buffer (KHB) [1]	Metabolic turnover / stability of radiotracer (in words) (HepG2 CYP1A2)	Summarized percentage of metabolites (HepG2 CYP3A4)	Defluorination (HepG2 CYP2C19; 1 h incubation)	Metabolic turnover / stability of radiotracer (in words) (HepG2 CYP2C19; HepG2 CYP2C19, up to 2 h)
[2H]C([2H])([18F])c1cc(-c2ccc(C)cc2)n(-c2ccc(S(C)(=O)=O)cc2)n1 [[^18F]2, 3-([D2, ^18F]fluoromethyl)-1-[4-(methylsulfonyl)phenyl]-5-(p-tolyl)-1H-pyrazole]	to a minor extent	–	–	–	–
Cc1ccc(-c2cc(CC[18F])nn2-c2ccc(S(C)(=O)=O)cc2)cc1 [[^18F]3, 3-([^18F]fluoroethyl)-1-[4-(methylsulfonyl)phenyl]-5-(p-tolyl)-1H-pyrazole]	–	pronounced slower degradation	below 3%	only noted during incubation with HepG2 CYP2C19	pronounced slower degradation
